One may read the inhibition as the percentage by which the read-out fell short of the control. Usually IC50 stands for the concentration that gives 50% inhibition. Lower therefore signals greater potency.

Results on four compounds are retold here after article PMC3857224, “Inhibition of DNA Glycosylases via Small Molecule Purine Analogs” (PLoS ONE, 2013).

What all share (assay type): biochemical
The target of assay [1] is T1, T4 pyrimidine dimer DNA glycosylase (T4-pdg) (Enterobacteria phage T4, UniProt P04418).
T1 construct: made in house
T1 sequence (P04418 whole entry): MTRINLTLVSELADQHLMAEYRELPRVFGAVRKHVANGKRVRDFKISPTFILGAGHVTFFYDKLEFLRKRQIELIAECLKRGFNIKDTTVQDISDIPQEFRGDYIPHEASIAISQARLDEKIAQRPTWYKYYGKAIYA
Nature of the assay: UV-irradiated plasmid nicking assay. The note with it: 40 µM inhibitor, 15 min; read-out: inhibition of T4-pdg activity (reduction in nicks per plasmid). The protocol: T4-pdg activity was assayed by a plasmid nicking assay with minor modifications of a previously described method, [27]. Supercoiled pBR322 plasmid was irradiated with 254 nm ultraviolet (UV) light (100 µW/cm^2) for 98 sec to produce approximately 10 thymine dimers per plasmid molecule. Irradiated plasmid (10 nM) was then incubated in the presence or absence of inhibitors with 130 pM active T4-pdg, as assessed by […] trapping. Reactions were started by addition of DNA, incubated for 15 min at 37°C in reaction buffer (10 mM Tris pH 8.0, 1 mM EDTA, 125 mM NaCl, 100 µg/ml BSA), and stopped by the addition of SDS to a final concentration of 1%. Plasmid DNAs (form I, II and III corresponding to supercoiled, nicked circular and linear, respectively) were resolved on a 0.9% agarose gel and visualized with 0.5 µg/ml ethidium bromide. Gel images were captured on a ChemiImager 5500 (Alpha Innotech, Santa Clara, CA) gel documentation system and densitometry was performed using Image J software. Percent remaining form I DNA was calculated by applying a factor of 1.42 to the form I band intensity and then dividing form I by the sum of form I, II and III. The number of nicks per molecule were estimated based on a Poisson distribution, in which nicks per molecule = -ln (mass fraction of form I DNA remaining), and inhibition of activity was measured as the percentage reduction in the number of nicks per plasmid molecule compared to reactions without inhibitor.
In humans, several glycosylases, including OGG1, NTH1, NEIL2, and NEIL3 may participate in the removal of a wide variety of oxidized bases. […] To address this question, assays were designed to measure inhibition of OGG1 and NTH1, as well as the Escherichia coli glycosylase-AP lyase, FPG. In order to compare the relative efficiencies of inhibition between NEIL1 and these other glycosylase/AP lyases, it was necessary to identify common DNA substrates and pair-wise analyze inhibition data. To compare inhibition of NEIL1 versus NTH1, oligodeoxynucleotides were synthesized that contained a site-specific thymine glycol (TG) adduct, while comparative inhibition data for OGG1 and FPG were collected using an oligodeoxynucleotide containing a site-specific 8-oxo-Gua. In control reactions (no inhibitor added), each enzyme generated the expected incised products, confirming the validity of the assay. […] Additionally, experiments were designed to test whether compounds P2, P6, P7, and P8 could inhibit a pyrimidine dimer-specific glycosylase/AP lyase, T4 pyrimidine dimer DNA glycosylase (T4-pdg) that also has an associated AP lyase activity, using an UV-irradiated plasmid nicking assay. […]

For assay [2], the target named is T2, NEIL1 (Homo sapiens, UniProt Q96FI4).
T2 construct: made in house
T2 sequence (Q96FI4 whole entry): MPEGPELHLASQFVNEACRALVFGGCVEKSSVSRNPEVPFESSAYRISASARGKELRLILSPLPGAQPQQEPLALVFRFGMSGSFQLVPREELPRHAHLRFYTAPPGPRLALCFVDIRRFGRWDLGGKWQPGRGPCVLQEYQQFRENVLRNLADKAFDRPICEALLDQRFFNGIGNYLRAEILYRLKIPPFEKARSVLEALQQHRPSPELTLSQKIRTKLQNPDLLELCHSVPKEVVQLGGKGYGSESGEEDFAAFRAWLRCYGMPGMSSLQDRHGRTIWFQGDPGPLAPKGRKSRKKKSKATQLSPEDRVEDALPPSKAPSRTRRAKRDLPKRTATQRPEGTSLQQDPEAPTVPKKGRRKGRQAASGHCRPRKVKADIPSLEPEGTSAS
The experiment in a line: qHTS fluorogenic glycosylase/AP lyase assay, 1536-well, Sp/Gh substrate. The conditions noted are these: 5 concentrations. The protocol:
The fluorogenic assay was miniaturized to 4 µL in 1536-well black solid plates by optimization of the enzyme and Sp/Gh substrate concentrations. Briefly, 3 µL of 25 nM NEIL1 were dispensed into each well of a 1536-well plate (except buffer in columns 3 and 4 as a negative control). Compounds (DMSO solutions) and control (DMSO only) (23 nL) were transferred to the plate via Kalypsys pintool. The plate was incubated for 15 min at room temperature, and then 1 µL of the Sp/Gh-containing DNA substrate (75 nM final concentration) was added to start the reaction. The plate was immediately transferred into the ViewLux reader for the kinetic fluorescence read. Initial rate data were normalized against uninhibited and no-enzyme controls and the resulting percent activities as a function of compound concentration were fitted using the Hill equation.
Having established the general principle for a glycosylase screening assay, further assay development was undertaken to enable HTS in which the reaction volumes were reduced by 5-fold to a total of 4 µL. Initially, the library of pharmacologically active compounds (LOPAC^1280) was screened for inhibitors of NEIL1 as a determination of the feasibility of this high-throughput method. […] All compounds were screened at 5 different concentrations that allowed for the initial estimation of inhibitory potency (IC50) values, as well as an evaluation of the shape of the response curves. In addition to the anticipated inhibitors (known DNA intercalators, such as ellipticine (IC50 = 2 µM)) and other small molecules that have been previously established to be promiscuous inhibitors (such as aurintricarboxylic acid (IC50<1 µM)), one interesting hit from this screen was CGP-74514A (NCGC ID is NCGC00015229) (Figure 5A). CGP-74514A is a known small molecule inhibitor of Cdk1 in which the structure of this molecule is based on a purine ring backbone.
On the technique in general: Quantitative high-throughput screening tests each substance at several concentrations.

Assay [3] addresses T2, NEIL1. Nature of the assay: NEIL1 excision of FapyAde and FapyGua from γ-irradiated calf thymus DNA by GC-MS/MS. The note with it: 10 µL of 2 mM inhibitor in DMSO, 1 h 37°C. The protocol: The enzymatic activity of NEIL1 was measured using gas chromatography/isotope-dilution tandem mass spectrometry (GC-MS/MS) and calf thymus DNA samples γ-irradiated at 20 Gy as described, [30]. Aliquots of FapyAde-^13C,^15N2 and FapyGua-^13C,^15N2 were added as internal standards to 50 µg of DNA samples. After drying in a SpeedVac, DNA samples were dissolved in 50 µL of an incubation buffer consisting of 50 mM phosphate buffer (pH 7.4), 100 mM KCl, 1 mM EDTA, and 0.1 mM dithiothreitol, and then incubated with 2 µg NEIL1 for 1 h at 37°C without any inhibitor, DMSO alone, or with 10 µL of an inhibitor solution in DMSO (2 mM). After incubation, 150 µL of cold ethanol was added. The samples were kept at −20°C for 1 h and then centrifuged with 14,000 g for 30 min at 4°C. The supernatant fractions were separated and ethanol removed in a SpeedVac under vacuum. The samples were then frozen in liquid nitrogen and lyophilized overnight. To fully remove DMSO that would interfere with GC-MS/MS analysis, 500 µL water were added to the samples followed by lyophilization overnight. This procedure was repeated twice. Dried samples were derivatized and analyzed by GC-MS/MS as described, [30]. For each data point, three independently prepared samples were used.
Although Gh and Sp are excellent substrates for NEIL1, these are likely not to be the biologically relevant substrates. Thus, to determine if the compounds that were identified above were effective in the inhibition of NEIL1 against its biologically relevant substrates FapyAde and FapyGua, [6], γ-irradiated calf thymus DNA was used as a substrate. The excision by NEIL1 of these substrates from DNA was measured by GC-MS/MS with isotope-dilution. Figure 8 illustrates the excision of FapyAde and FapyGua by NEIL1 from γ-irradiated calf thymus DNA in the absence or presence of inhibitors. […] Some inhibition by DMSO alone was also observed when compared with excision by NEIL1 alone (p = 0.01). However, when compared to DMSO, the inhibitions by P2, P6, P7 and P8 were highly significant (p<0.005). […] A p-value<0.05 was assumed to correspond to statistical significance.

SMILES strings stand for the structures. Bounds are passed on as bounds.

Regarding `Cc1cc(/C=C/C#N)cc(C)c1Nc1nc(Nc2ccc3c(c2)OCO3)c2nc[nH]c2n1` [Purine P8], in assay [1], the inhibition at 40 µM was determined as 14%. Also, 10 µM corresponded to half-maximal inhibition at NEIL1 [2] (IC50). Further, the “inhibition of NEIL1 excision of FapyAde and FapyGua” value (shortened to “inhibition … of FapyAde and FapyGua”) against NEIL1 [3] is reported as “significantly reduced the activity of NEIL1”.

For the compound `Cc1cc(/C=C/C#N)cc(C)c1Nc1nc(Nc2ccc3scnc3c2)c2nc[nH]c2n1` [Purine P2], in assay [1], the inhibition at 40 µM was below 1%. The compound further yielded a half-maximal inhibitory concentration (IC50) at NEIL1 [2] of 4 µM. The “inhibition … of FapyAde and FapyGua” value at NEIL1 [3] was “significantly reduced the activity of NEIL1”.

Turning to `Cc1nc2ccc(Nc3nc(Nc4c(C)cc(/C=C/C#N)cc4C)nc4[nH]cnc34)cc2s1` [Purine P6], the inhibition at 40 µM in assay [1] turned out to be 32%. This compound displayed a half-maximal inhibitory concentration (IC50) against NEIL1 [2] of 7.9 µM. Also, at NEIL1 [3], the “inhibition … of FapyAde and FapyGua” value was “significantly reduced the activity of NEIL1”.

As for `Cc1cc(/C=C/C#N)cc(C)c1Nc1nc(Nc2ccc3c(c2)CCC3)c2nc[nH]c2n1` [Purine P7], in assay [1], the inhibition at 40 µM turned out to be 13%. Also, at NEIL1 [2], the IC50 is 8.9 µM. Further, at NEIL1 [3], the “inhibition … of FapyAde and FapyGua” value was “significantly reduced the activity of NEIL1”.
